# Measurements taken from ChEMBL document CHEMBL1128685, “Novel and potent adenosine 3',5'-cyclic phosphate phosphodiesterase III inhibitors: thiazolo[4,5-b][1,6]naphthyridin-2-ones” (J Med Chem, 1995).
# Molecular target: Phosphodiesterase 3 (Homo sapiens, UniProt Q14432+Q13370)
# Assay: Inhibition of cAMP PDE 3
# Type: protein assay
row,IC50 [µM],SMILES
1,0.33,CC(C)Cc1nccc2nc3nc(O)sc3cc12
2,0.067,CCCc1nccc2nc3nc(O)sc3cc12
3,0.43,Oc1nc2nc3ccnc(-c4ccccc4)c3cc2s1
4,0.022,CCc1nccc2nc3nc(O)sc3cc12
5,0.24,Oc1ccc(-c2nccc3nc4nc(O)sc4cc23)cc1
6,0.062,Cc1nccc2nc3nc(O)sc3cc12
7,0.083,O=[N+]([O-])c1cc(-c2nccc3nc4nc(O)sc4cc23)ccc1O
